Laboratory results as given in article PMC11211886 (Frontiers in Pharmacology, 2024).
pIC50: −log10 of the molar value. Values belong to the molecule of their own block, whether it stands above or below them.

Assays:
[1] = Caco-2 bidirectional transport permeability; type: in vitro ADME, human; details: human
Description: The passage number of cells used in this study was 39. Non-specific binding to the device surfaces and the aqueous solubility of test compounds were tested before the transport experiment. […] The integrity of the monolayer was estimated by measuring transepithelial electrical resistance (TEER). Only the monolayers with TEER over 150 Ω were used for the studies.

[2] = target: T1, OATP1B3 (Homo sapiens, UniProt Q9NPD5); experiment: OATP1B3 inhibition, β-estradiol 17-(β-D-glucuronide) uptake in transfected HEK293 cells
T1 sequence (Q9NPD5 1-702): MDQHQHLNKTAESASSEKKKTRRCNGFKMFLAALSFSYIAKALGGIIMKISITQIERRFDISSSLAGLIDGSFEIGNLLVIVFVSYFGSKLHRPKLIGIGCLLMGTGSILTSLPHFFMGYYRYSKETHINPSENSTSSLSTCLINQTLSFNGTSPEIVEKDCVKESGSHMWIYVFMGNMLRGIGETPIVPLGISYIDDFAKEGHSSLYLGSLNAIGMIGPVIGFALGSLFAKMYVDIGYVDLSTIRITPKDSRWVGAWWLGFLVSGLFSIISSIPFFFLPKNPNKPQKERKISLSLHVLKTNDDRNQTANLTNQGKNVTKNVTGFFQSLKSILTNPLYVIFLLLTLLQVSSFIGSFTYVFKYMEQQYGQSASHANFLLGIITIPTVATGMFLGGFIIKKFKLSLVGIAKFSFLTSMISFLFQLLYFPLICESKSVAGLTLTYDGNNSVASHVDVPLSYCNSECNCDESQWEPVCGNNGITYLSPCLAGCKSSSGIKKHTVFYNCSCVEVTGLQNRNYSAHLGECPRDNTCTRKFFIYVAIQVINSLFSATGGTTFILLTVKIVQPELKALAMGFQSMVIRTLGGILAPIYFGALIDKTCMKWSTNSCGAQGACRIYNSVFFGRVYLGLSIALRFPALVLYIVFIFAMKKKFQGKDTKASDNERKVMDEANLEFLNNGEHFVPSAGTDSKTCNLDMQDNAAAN
Description: (§1) The pre-incubation solutions were removed, and incubation solutions containing the inhibitors and probe substrates (or transport buffer containing an equal volume of vehicle control and probe substrates) were added and incubated at 37°C for 2 min (5 min for OATP1B3). The probe substrate for OAT1 was 4-aminohippuric acid (10 μM), for OAT3 was estrone 3-sulfate (10 μM), for OCT2 was metformin (100 μM), for OATP1B1 was β-estradiol 17-(β-D-glucuronide) (5 μM), for OATP1B3 was β-estradiol 17-(β-D-glucuronide) (10 μM), and for MATE1 and MATE2-K was tetraethylammonium (10 μM). After incubation, cells were washed three times with ice-cold transport buffer (25 mM HEPES, pH 7.4, pH 8.0 for overexpressing MATE1 and MATE2-K HEK293 cells) and lysed in distilled water. The concentrations of probe substrates were determined by LC-MS/MS, and a BCA Kit (Solarbio ®Life Sciences, Beijing, China) was used to determine the protein content in the cell lysate.
(§2) where C is the concentration of the drug in the cell lysate (nM), P is the protein concentration of the cell lysate (mg/mL), and T is the incubation time (minute). Uptake ratetest compound is the uptake rate of the substrate in the presence of the test compound. Uptake ratevehicle control is the uptake rate of the substrate in the presence of the vehicle control. Uptake ratepassive is the uptake rate of the substrate in the presence of the positive inhibitor at the top test concentration.

[3] = target: T2, OATP1B1 (Homo sapiens, UniProt Q9Y6L6); experiment: OATP1B1 inhibition, β-estradiol 17-(β-D-glucuronide) uptake in transfected HEK293 cells
T2 sequence (Q9Y6L6 1-691): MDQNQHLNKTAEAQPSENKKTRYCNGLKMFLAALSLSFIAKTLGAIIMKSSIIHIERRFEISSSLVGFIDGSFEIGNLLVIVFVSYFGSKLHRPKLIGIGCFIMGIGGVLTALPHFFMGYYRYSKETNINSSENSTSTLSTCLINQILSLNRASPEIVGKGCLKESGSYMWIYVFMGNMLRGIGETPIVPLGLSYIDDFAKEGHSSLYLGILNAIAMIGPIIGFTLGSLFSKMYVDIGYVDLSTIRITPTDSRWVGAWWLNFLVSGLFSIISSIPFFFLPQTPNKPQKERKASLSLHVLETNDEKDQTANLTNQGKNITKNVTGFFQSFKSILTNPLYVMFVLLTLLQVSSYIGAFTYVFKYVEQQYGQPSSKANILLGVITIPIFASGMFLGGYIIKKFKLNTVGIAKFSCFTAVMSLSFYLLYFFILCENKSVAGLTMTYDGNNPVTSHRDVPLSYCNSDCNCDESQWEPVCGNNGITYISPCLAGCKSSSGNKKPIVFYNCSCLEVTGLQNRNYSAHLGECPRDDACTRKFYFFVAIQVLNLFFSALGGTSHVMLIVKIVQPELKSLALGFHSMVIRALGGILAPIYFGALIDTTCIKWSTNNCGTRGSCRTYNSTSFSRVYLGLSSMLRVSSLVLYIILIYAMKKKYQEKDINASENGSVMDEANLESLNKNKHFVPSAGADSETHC
Description: as §1, §2

[4] = among marketed PI3Kδ inhibitors; ref FDA, 2014; FDA, 2017, 2018, 2021; cited from earlier work
[5] = clinical trials; ref FDA, 2014; FDA, 2017, 2018, 2021; cited from earlier work
[6] = ref FDA, 2021; cited from earlier work
[7] = target: P-gp (Homo sapiens, UniProt P08183); experiment: in vitro; details: human, Caco-2
Sequence of P-gp (P08183 whole entry): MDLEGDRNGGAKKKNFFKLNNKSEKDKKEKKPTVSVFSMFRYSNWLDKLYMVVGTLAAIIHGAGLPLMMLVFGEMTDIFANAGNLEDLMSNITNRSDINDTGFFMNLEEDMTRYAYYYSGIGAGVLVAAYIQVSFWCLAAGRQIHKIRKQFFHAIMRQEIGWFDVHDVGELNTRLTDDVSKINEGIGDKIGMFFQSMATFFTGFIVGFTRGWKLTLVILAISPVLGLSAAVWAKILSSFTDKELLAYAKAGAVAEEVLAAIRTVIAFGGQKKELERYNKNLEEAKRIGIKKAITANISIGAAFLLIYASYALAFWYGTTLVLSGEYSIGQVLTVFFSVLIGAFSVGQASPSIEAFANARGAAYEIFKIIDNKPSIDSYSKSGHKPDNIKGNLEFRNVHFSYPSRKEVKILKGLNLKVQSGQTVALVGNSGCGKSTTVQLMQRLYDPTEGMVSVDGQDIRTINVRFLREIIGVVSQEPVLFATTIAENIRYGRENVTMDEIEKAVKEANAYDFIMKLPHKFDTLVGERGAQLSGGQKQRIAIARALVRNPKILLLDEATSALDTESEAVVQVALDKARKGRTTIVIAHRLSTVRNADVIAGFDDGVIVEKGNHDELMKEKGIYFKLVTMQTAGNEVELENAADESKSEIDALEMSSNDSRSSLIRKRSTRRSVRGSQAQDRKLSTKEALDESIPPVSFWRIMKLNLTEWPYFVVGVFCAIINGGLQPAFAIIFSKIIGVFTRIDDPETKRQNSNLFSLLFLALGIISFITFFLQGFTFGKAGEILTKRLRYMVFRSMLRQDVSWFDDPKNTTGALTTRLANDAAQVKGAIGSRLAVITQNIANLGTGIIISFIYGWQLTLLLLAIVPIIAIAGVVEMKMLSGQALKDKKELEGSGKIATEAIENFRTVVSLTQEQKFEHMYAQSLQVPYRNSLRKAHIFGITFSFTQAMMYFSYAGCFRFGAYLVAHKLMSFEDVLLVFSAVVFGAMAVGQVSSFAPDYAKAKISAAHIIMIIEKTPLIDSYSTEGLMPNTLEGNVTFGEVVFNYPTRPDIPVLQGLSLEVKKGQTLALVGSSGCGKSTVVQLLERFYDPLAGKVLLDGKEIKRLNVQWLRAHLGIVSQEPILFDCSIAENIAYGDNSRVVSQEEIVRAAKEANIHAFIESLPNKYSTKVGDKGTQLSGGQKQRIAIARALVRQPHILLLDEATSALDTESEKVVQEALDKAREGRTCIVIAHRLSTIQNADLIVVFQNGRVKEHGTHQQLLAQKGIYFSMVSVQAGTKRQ
Excerpt: The experimental conditions were similar to those of the permeability study.

- Papp A→B at 60 min, 10 µM [1]: 39.4 ×10⁻⁶ cm/s
- Papp B→A at 60 min, 10 µM [1]: 36.8 ×10⁻⁶ cm/s
- efflux ratio at 60 min, 10 µM [1]: 0.935
SMILES: COCCc1ccc(OCC(O)CNC(C)C)cc1 (centres unmarked) [Metoprolol, reference compound]

SMILES: CO[C@H]1/C=C/O[C@@]2(C)Oc3c(C)c(O)c4c(O)c(c(/C=N/N5CCN(C)CC5)c(O)c4c3C2=O)NC(=O)/C(C)=C\C=C\[C@H](C)[C@H](O)[C@@H](C)[C@@H](O)[C@@H](C)[C@H](OC(C)=O)[C@@H]1C [Rifampicin, reference compound]
- pIC50 [2]: 6.21
- Percentage transported ([2]; human, 5 min, 10 μM, pH 7.4): 0.00%
- Uptake rate ([2]; human, 5 min, 10 μM, pH 7.4): 4.46±0.829 pmol/mg protein/min
- inhibition at 5 min, 10 µM ([2]; human, pH 7.4): 100%
- pIC50 [3]: 6.06
- Percentage transported ([3]; human, 2 min, 10 μM, pH 7.4): 0.00%
- Uptake rate ([3]; human, 2 min, 10 μM, pH 7.4): 3.03±0.536 pmol/mg protein/min

SMILES: CC(C)Oc1ccc(-c2nn([C@@H](C)c3oc4ccc(F)cc4c(=O)c3-c3cccc(F)c3)c3ncnc(N)c23)cc1F [umbralisib, Umbralisib]
- Vz/F in human [4]: highest Vz/F among these drugs
- incidence of ≥Grade 3 GI toxicity, including diarrhea and colitis [5]: higher than 10%
- exposure in the intestines versus plasma [6]: 100 fold

- Papp B→A at 60 min, 5 µM [7]: 25 ×10⁻⁶ cm/s
SMILES: C[C@H]1O[C@@H](O[C@H]2[C@@H](O)C[C@H](O[C@H]3[C@@H](O)C[C@H](O[C@H]4CC[C@@]5(C)[C@H](CC[C@@H]6[C@@H]5C[C@@H](O)[C@]5(C)[C@@H](C7=CC(=O)OC7)CC[C@]65O)C4)O[C@@H]3C)O[C@@H]2C)C[C@H](O)[C@@H]1O [Digoxin, reference compound]
